PMC9319939, “Siccanin Is a Dual-Target Inhibitor of Plasmodium falciparum Mitochondrial Complex II and Complex III” (Pharmaceuticals, 2022)

How the values were obtained:
P. falciparum complex II = P. falciparum complex II (Plasmodium falciparum, UniProt Q8I5S5+Q8IJU2); assay: succinate:ubiquinone reductase (SQR) activity, crude mitochondrial fraction, DCIP reduction; format: biochemical; conditions: siccanin 10 μM; read-out: Relative residual activity of SQR
Protocol: (§1) A synchronized parasite culture was grown for 64 h and a crude mitochondrial fraction was prepared from trophozoite-stage cells (as confirmed by Giemsa staining). Infected red blood cells were collected by centrifugation at 800× g for 5 min at 4 °C and incubated for 5 min at room temperature with 40 mL of 0.075% (w/v) saponin in AIM buffer (120 mM KCl, 20 mM NaCl, 10 mM PIPES (1,4-piperazinediethanesulfonic acid) buffer [pH 6.7], 1 mM MgCl2, 5 mM glucose). Released parasites were collected by centrifugation at 2780× g for 7 min at 4 °C and washed three times with AIM buffer. […]
(§2) Complex II, DHODH, MQO, NDH2, G3PDH, and dihydroorotate-cytochrome c (DHO-cyt c) reductase activities were measured, as described previously, using a V-660 spectrophotometer (JASCO; Tokyo, Japan). Briefly, complex II activity was measured at 25 °C in a 1 mL reaction mixture containing 45 μM 2,6-dichlorophenolidophenol (DCIP), 100 μM ubiquinone-2 (UQ2), and 2 mM KCN in 50 mM potassium phosphate buffer, pH 8.0. DHODH, MQO, and G3PDH activities were measured at 25 °C in 1 mL of the reaction mixture containing 45 μM DCIP, 100 μM UQ2, and 2 mM KCN in 30 mM Tris-HCl buffer, pH 8.0. […] NDH2 activity was measured at 25 °C in 1 mL of the reaction mixture containing 100 µM UQ1 and 2 mM KCN in 50 mM potassium phosphate buffer, pH 8.0. […]

[1] = test system: malate:quinone oxidoreductase (MQO); assay: MQO activity, crude mitochondrial fraction, DCIP reduction; format: biochemical, Plasmodium falciparum
Protocol: as §1, §2

[2] = biological target: T1, P. falciparum complex III (Plasmodium falciparum, UniProt Q02768); assay: DHO-cytochrome c reductase activity (DHODH coupled to complex III); format: biochemical
T1 construct: used as crude mitochondrial fraction for all enzymatic assays; endogenous in cells; host or cells: P. falciparum 3D7 trophozoite-stage parasites, crude mitochondrial fraction
T1 sequence (Q02768 whole entry, one chain of several): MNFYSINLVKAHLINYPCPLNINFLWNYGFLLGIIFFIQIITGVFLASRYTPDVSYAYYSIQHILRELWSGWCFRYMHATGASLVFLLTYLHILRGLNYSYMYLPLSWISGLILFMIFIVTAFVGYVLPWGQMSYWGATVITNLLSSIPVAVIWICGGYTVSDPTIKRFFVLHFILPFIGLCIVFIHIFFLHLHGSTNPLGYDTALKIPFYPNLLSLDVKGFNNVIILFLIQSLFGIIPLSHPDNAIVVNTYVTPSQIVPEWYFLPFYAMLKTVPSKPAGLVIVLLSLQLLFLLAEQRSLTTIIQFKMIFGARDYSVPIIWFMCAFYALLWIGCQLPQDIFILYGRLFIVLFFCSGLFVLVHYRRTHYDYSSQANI
Protocol: (§3) A synchronized parasite culture was grown for 64 h and a crude mitochondrial fraction was prepared from trophozoite-stage cells (as confirmed by Giemsa staining). Infected red blood cells were collected by centrifugation at 800× g for 5 min at 4 °C and incubated for 5 min at room temperature with 40 mL of 0.075% (w/v) saponin in AIM buffer (120 mM KCl, 20 mM NaCl, 10 mM PIPES (1,4-piperazinediethanesulfonic acid) buffer [pH 6.7], 1 mM MgCl2, 5 mM glucose). Released parasites were collected by centrifugation at 2780× g for 7 min at 4 °C and washed three times with AIM buffer. P. falciparum was suspended in MSE buffer [225 mM mannitol, 75 mM sucrose, 0.1 mM ethylenediaminetetraacetic acid (EDTA), 3 mM Tris-HCl buffer, pH 7.4] containing 1 mM phenylmethylsulphonyl fluoride, and disrupted by nitrogen cavitation at 1200 psi using a 4639 Cell Disruption Bomb (Parr Instrument Company; Moline, IL, USA). The unbroken cells and cell debris were removed by centrifugation at 800× g for 5 min at 4 °C. The supernatant was centrifuged at 5000× g for 20 min at 4 °C. The resulting pellet was suspended in 200–400 μL MSE buffer and used as crude mitochondrial fraction for all enzymatic assays, as described previously.
(§4) DHO-cyt c activity was measured at 25 °C in 1 mL of the reaction mixture containing 20 μM cytochrome c and 2 mM KCN in 30 mM Tris-HCl buffer, pH 8.0. The reduction of cytochrome c was monitored at 550 nm after initiation of the reaction by addition of 500 μM dihydroorotate. Various concentrations of siccanin (formulated in DMSO) were added to the reaction mixtures before the initiation of the reactions. In all assays, the final concentration of DMSO was fixed at 0.1% (v/v). IC50 values were calculated using Prism® ver.6.01.

[3] = test system: P. falciparum complex III; assay: as above; format: biochemical; conditions: ratio mammalian / P. falciparum IC50
Protocol: as §3, §4

Δsdha-3D7 P. falciparum = assay: Drug sensitivity assay, 72 h, PfLDH-based, sdha-disrupted strain; format: cell-based; conditions: Plasmodium falciparum, 3D7, read-out: Growth IC50, Δsdha-3D7
Protocol: The P. falciparum 3D7 strain was cultured, as described previously, in 3% hematocrit type A human red blood cells (RBCs) in RPMI1640 medium (Invitrogen; San Diego, CA, USA) supplemented with 25 mM sodium hydrogen biocarbonate, 10 μg/mL hypoxanthine, 40 μg/mL gentamicin sulfate, and 0.5% (w/v) Albumax II (Invitrogen) (“complete medium”). Cultures were maintained in a MG-70M multi-gas incubator (Taitec) under the conditions of 5% O2, 5% CO2, and 90% N2 at 37 °C. The medium was replaced daily. Parasitemia was measured by thin blood smears stained with Giemsa. In our previous study, we generated mutant P. falciparum strains expressing either disrupted or full-length versions of the flavoprotein (Fp) subunit (encoded by the Pfsdha gene). […]
Synchronized ring-form parasites (0.3% parasitemia) were prepared in complete medium containing different concentration of various compounds (at a fixed final DMSO concentration of 0.1% (v/v)) and distributed to 96-well plates at 100 μL/well. After 72 h of incubation, parasite growth was monitored by the previously described lactate dehydrogenase (PfLDH)-based assay method; plates were read using a SpectraMax® Paradigm spectrophotometer (Molecular Devices, Inc.; San Jose, CA, USA). EC50 values were calculated using Prism® ver.6.01 (GraphPad; San Diego, CA, USA). […]

P. falciparum 3D7-yDHODH = assay: Growth inhibition of yeast DHODH-expressing strain; format: cell-based; conditions: Plasmodium falciparum, 3D7, read-out: Growth inhibition EC50, 3D7-yDHODH
Protocol: (§5) P. falciparum 3D7-yDHODH was prepared and maintained as described previously. P. falciparum Dd2, and Dd2-derived mutant strains were kindly provided by David A. Fidock, and maintained at Nagasaki University essentially as described in reference, except without supplementation with WR99210.
(§6) Synchronized ring-form parasites (0.3% parasitemia) were prepared in complete medium containing different concentration of various compounds (at a fixed final DMSO concentration of 0.1% (v/v)) and distributed to 96-well plates at 100 μL/well. After 72 h of incubation, parasite growth was monitored by the previously described lactate dehydrogenase (PfLDH)-based assay method; plates were read using a SpectraMax® Paradigm spectrophotometer (Molecular Devices, Inc.; San Jose, CA, USA). EC50 values were calculated using Prism® ver.6.01 (GraphPad; San Diego, CA, USA). Values are presented as the means of three independent experiments.

[4] = test system: Dd2_DHIQ (ATP4-G358S mutation); assay: Growth inhibition of Dd2_DHIQ (cipargamin-resistant); format: cell-based; conditions: Plasmodium falciparum, read-out: Growth inhibition EC50, DHIQ
Protocol: as §5, §6

[5] = test system: T. mentagrophytes complex II; set-up: method as in PMID 4250609; conditions: ref [31]; read-out: IC50, T. mentagrophytes enzyme; cited from earlier work

Sequence of P. falciparum complex II (Q8IJ66 entry or part of it): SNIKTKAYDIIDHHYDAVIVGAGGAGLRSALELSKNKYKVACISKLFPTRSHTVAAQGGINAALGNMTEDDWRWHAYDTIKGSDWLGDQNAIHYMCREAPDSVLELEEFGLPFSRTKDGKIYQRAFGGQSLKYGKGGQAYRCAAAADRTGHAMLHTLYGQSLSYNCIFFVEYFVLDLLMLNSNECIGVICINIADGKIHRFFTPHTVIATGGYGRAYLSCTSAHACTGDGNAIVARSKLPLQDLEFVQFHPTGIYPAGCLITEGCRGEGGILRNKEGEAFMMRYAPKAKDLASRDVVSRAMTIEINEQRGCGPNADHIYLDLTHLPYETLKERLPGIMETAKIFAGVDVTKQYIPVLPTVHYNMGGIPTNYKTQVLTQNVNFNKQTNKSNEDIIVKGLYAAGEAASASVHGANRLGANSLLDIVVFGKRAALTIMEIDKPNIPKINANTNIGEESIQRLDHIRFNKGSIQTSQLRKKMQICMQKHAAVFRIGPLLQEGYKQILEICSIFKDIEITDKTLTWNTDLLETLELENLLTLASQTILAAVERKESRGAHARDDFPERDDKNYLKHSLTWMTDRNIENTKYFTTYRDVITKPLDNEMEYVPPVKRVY
Sequence of P. falciparum complex II (Q8IJU2 entry or part of it): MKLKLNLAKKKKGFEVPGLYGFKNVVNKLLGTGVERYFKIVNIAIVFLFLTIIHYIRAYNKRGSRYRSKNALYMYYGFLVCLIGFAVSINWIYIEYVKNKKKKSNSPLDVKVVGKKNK
Sequence of P. falciparum complex II (Q8I5S5 entry or part of it): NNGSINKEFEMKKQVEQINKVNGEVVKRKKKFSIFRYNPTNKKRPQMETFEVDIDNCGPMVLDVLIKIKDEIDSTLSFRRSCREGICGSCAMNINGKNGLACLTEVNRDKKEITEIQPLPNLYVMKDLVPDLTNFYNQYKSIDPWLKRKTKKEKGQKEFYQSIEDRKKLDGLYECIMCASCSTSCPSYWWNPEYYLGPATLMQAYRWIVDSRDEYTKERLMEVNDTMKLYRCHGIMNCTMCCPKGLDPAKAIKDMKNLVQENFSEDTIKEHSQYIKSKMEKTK

## Cc1cc(O)c2c(c1)O[C@@]1(C)CC[C@H]3C(C)(C)CCC[C@]34CO[C@@H]2[C@H]41 [Siccanin]
P. falciparum complex II
  remaining activity at 10 µM: 2.7 ± 6.5%
[1]; 10 µM
  Effect on MQO activity: did not inhibit
[1]; siccanin 10 μM
  Relative residual activity of MQO: 109.2 ± 2.0%
[2]; 60 μM
  Effect on DHO-cyt c activity: completely inhibits
[2]; P. falciparum crude mitochondrial fraction, read-out: Complex III (DHO-cyt c activity) IC50
  IC50: 8.39 µM
[3]
  Selectivity, Complex III: >60
Δsdha-3D7 P. falciparum
  IC50: 6.13 ± 0.91 µM
P. falciparum 3D7-yDHODH
  EC50: 10.3 µM
[4]
  EC50: 16.4 µM
[5]
  IC50: ~0.09 µM
